From the supplement of paper PMC10307832

How the values were obtained:
Test in all cases: relative viability (nuclei count vs DMSO), 5 days (fraction); higher = more cells survive
Wnt-C59 + Alpelisib = compound: CC1=NC=CC(=C1)C2=CC=C(C=C2)CC(=O)NC3=CC=C(C=C3)C4=CN=CC=C4 [Wnt-C59] + Cc1nc(NC(=O)N2CCC[C@H]2C(N)=O)sc1-c1ccnc(C(C)(C)C(F)(F)F)c1 [Alpelisib] (partner 2 µM)
In short: (§1)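 Relative viability divides the nuclei count in treated wells by that in vehicle wells. Lung cancer cell lines were seeded in 1536-well plates, dosed by pin tool the next day, and fixed and stained after 5 days in one step with final 0.05% Triton X-100, 1% formaldehyde and 1 ug/ml Hoechst. Dosing was a single drug or a fixed anchor-drug dose plus five library-drug doses (not always all listed) in √10 steps, and values are medians of duplicate plates imaged at 4×.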

Lapatinib + Luminespib = compound: CS(=O)(=O)CCNCc1ccc(-c2ccc3ncnc(Nc4ccc(OCc5cccc(F)c5)c(Cl)c4)c3c2)o1 [Lapatinib] + CCNC(=O)c1noc(-c2cc(C(C)C)c(O)cc2O)c1-c1ccc(CN2CCOCC2)cc1 [Luminespib] (partner 0.01 µM)
In short: as §1

Wnt-C59 + Tozasertib = compound: CC1=NC=CC(=C1)C2=CC=C(C=C2)CC(=O)NC3=CC=C(C=C3)C4=CN=CC=C4 [Wnt-C59] + Cc1cc(Nc2cc(N3CCN(C)CC3)nc(Sc3ccc(NC(=O)C4CC4)cc3)n2)n[nH]1 [Tozasertib] (partner 0.1 µM)
In short: as §1

Lapatinib + Vorinostat = compound: CS(=O)(=O)CCNCc1ccc(-c2ccc3ncnc(Nc4ccc(OCc5cccc(F)c5)c(Cl)c4)c3c2)o1 [Lapatinib] + O=C(CCCCCCC(=O)Nc1ccccc1)NO [Vorinostat] (partner 1 µM)
In short: as §1

Cell Line | relative viability (Wnt-C59 + Alpelisib; first compound 0.001 µM) | relative viability (Wnt-C59 + Alpelisib; first compound 0.01 µM) | relative viability (Wnt-C59 + Alpelisib; first compound 0.03162 µM) | relative viability (Wnt-C59 + Alpelisib; first compound 0.1 µM) | relative viability (Lapatinib + Luminespib; first compound 0.02 µM) | relative viability (Lapatinib + Luminespib; first compound 0.06325 µM) | relative viability (Lapatinib + Luminespib; first compound 0.2 µM) | relative viability (Lapatinib + Luminespib; first compound 0.6325 µM) | relative viability (Lapatinib + Luminespib; first compound 2 µM) | relative viability (Wnt-C59 + Tozasertib; first compound 0.001 µM) | relative viability (Wnt-C59 + Tozasertib; first compound 0.01 µM) | relative viability (Wnt-C59 + Tozasertib; first compound 0.03162 µM) | relative viability (Wnt-C59 + Tozasertib; first compound 0.1 µM) | relative viability (Lapatinib + Vorinostat; first compound 0.02 µM) | relative viability (Lapatinib + Vorinostat; first compound 0.06325 µM) | relative viability (Lapatinib + Vorinostat; first compound 0.2 µM) | relative viability (Lapatinib + Vorinostat; first compound 0.6325 µM) | relative viability (Lapatinib + Vorinostat; first compound 2 µM)
LOU-NH91 | 0.744 | 0.597 | 0.683 | 0.79 | 0.368 | 0.305 | 0.364 | 0.346 | 0.362 | 0.775 | 0.597 | 0.695 | 0.682 | 0.398 | 0.675 | 0.856 | 0.824 | 0.769
NCI-H2023 | 0.627 | 0.622 | 0.656 | 0.508 | 0.696 | 0.593 | 0.723 | 0.751 | 0.619 | 0.406 | 0.332 | 0.352 | 0.356 |  | 0.402 | 0.603 | 0.612 | 0.552
LC-2-ad | 0.824 | 0.846 | 0.953 | 0.778 |  | 0.865 | 1.2 | 0.988 | 0.942 | 0.403 | 0.45 | 0.478 | 0.434 |  | 0.632 | 0.763 | 0.623 | 0.672
NCI-H1355 | 1.01 | 0.746 | 0.801 | 0.733 |  | 0.646 | 0.634 | 0.685 | 0.441 | 0.599 | 0.581 | 0.564 | 0.558 | 0.574 | 0.541 | 0.568 | 0.61 | 0.395
NCI-H2347 | 0.936 | 1.01 | 0.9 | 0.984 |  | 0.156 | 0.638 | 0.523 | 0.361 | 0.581 | 0.453 | 0.446 | 0.618 | 0.501 | 0.629 | 0.554 | 0.689 | 0.547
NCI-H441 | 0.797 | 0.687 | 0.809 | 0.583 |  | 0.299 | 0.278 | 0.282 | 0.322 | 0.691 | 0.646 | 0.691 | 0.566 | 0.713 |  | 0.84 | 0.757 | 0.887
NCI-H1944 | 0.767 | 0.755 | 0.785 | 0.755 | 0.723 | 0.435 | 0.623 | 0.552 | 0.522 | 0.237 | 0.261 | 0.263 | 0.246 | 0.514 | 0.511 | 0.461 | 0.459 | 0.437
NCI-H661 | 0.621 | 0.595 | 0.813 | 0.821 | 0.887 | 0.925 | 0.814 | 0.807 | 0.584 | 0.351 | 0.324 | 0.352 | 0.357 | 0.758 | 0.783 | 0.79 | 0.736 | 0.605
201T | 1.06 | 1.01 | 0.99 | 1 | 1.02 | 0.976 | 1.03 | 1.03 | 1.04 | 0.96 | 0.923 | 1.05 | 0.952 | 0.48 | 0.78 | 0.89 | 0.938 | 0.854
NCI-H2087 | 1.18 | 1.05 | 0.996 | 1.05 |  | 0.169 | 0.169 | 0.162 | 0.161 | 0.274 | 0.235 | 0.255 | 0.291 | 0.547 | 0.843 | 0.728 | 0.604 | 0.671
BEN | 1.11 | 0.993 | 1.37 | 0.957 |  | 0.564 | 0.229 | 0.402 | 0.417 | 0.478 | 0.474 | 0.497 | 0.501 | 0.506 | 0.587 | 0.586 | 0.559 | 0.51
COR-L23 | 0.776 | 0.752 | 0.775 | 0.725 | 0.715 | 0.688 | 0.731 | 0.646 | 0.567 | 0.202 | 0.237 | 0.233 | 0.19 | 0.422 | 0.522 | 0.558 | 0.553 | 0.393
NCI-H1755 | 0.932 | 0.891 | 0.907 | 0.908 | 0.421 | 0.423 | 0.349 | 0.579 | 0.378 | 0.647 | 0.528 | 0.646 | 0.534 | 0.731 | 0.689 | 0.801 | 0.76 | 0.676
EMC-BAC-2 | 0.684 | 0.607 | 0.672 | 0.65 | 1.09 | 0.998 | 1.19 | 1.06 | 1.08 | 0.341 | 0.274 | 0.322 | 0.306 |  | 0.336 |  | 0.531 | 0.522
NCI-H1734 | 0.807 | 0.68 | 0.703 | 0.726 | 0.22 | 0.196 | 0.189 | 0.186 | 0.174 | 0.258 | 0.233 | 0.288 | 0.139 |  | 0.708 | 0.816 | 0.88 | 0.792
NCI-H727 | 0.584 | 0.546 | 0.741 | 0.421 |  |  | 0.285 | 0.278 | 0.431 | 0.702 | 0.547 | 0.586 | 0.565 | 1.17 |  | 1.17 | 1.45 | 1.02
A-427 | 1.07 | 1 | 1.14 | 1.08 |  | 0.751 | 0.96 | 0.959 | 1.1 | 0.217 | 0.183 | 0.211 | 0.243 | 0.839 | 0.841 | 0.862 | 0.833 | 0.845
